# Paper PMC5459475 (2017)
# Key:
# [1] = test system: 6-FAM-CUG23 (RNA, repeat) CUGCUGCUGCUGCUGCUGCUGCUGCUGCUGCUGCUGCUGCUGCUGCUGCUGCUGCUGCUGCUGCUGCUG; test: fluorescence polarization; conditions: 250 mM NaCl, 50 μM ZnCl2, 50 mM Tris-HCl pH 7.0, 10% glycerol, 1 mM DTT, on ice, RNA 6 nM
# [2] = test system: (CUG)12 RNA (CUGexp) (RNA, repeat) CUGCUGCUGCUGCUGCUGCUGCUGCUGCUGCUGCUG; test: direct fluorescence titration; conditions: log K; fitted with HypSpec; buffer of the direct titration not stated separately
structure (smiles),measurement,setting,value
N=C(N)c1ccc(OCCCCCOc2ccc(C(=N)N)cc2)cc1,binding,[1]; 100 μM pentamidine positive control,yes
CC1Cc2c(N)nc(NCc3ccc(CNc4nc(N)c5c(n4)NC(=O)C(C)C5)cc3)nc2NC1=O (stereo not shown),binding,[1]; saturated at 250 μM,yes
CN1C(=Cc2cc[n+](C)c3ccccc23)Sc2ccccc21,binding constant,[2],6.5(1) logarithmic units
CC(=O)Nc1cccc(NC(=O)c2csc(NC(=O)c3ccc(Cl)cc3)n2)c1,binding,[1]; pentamidine-like polarization at 37.5 μM,yes
